Structures can show the parent of a compound that is named as a salt.
Columns and labels:
[1] = system: hindlimb tonic extensor component of the maximal seizure pattern; experiment: Anticonvulsive activity in mice (maximal electroshock seizure); type: in vivo; details: Mus musculus, po, p.o.
Description: Male mice with body weights between 20 and 26 gm were used as experimental animals. They were allowed free access to food (Altromin®) and water up to one hour before administration of the test compound. Tests were carried out by using the maximal electroshock seizure pattern[Swinyard, Brown and Goodman, J. Pharmacol. exp. Ther. 106, 319 (1952)]. The electroshock apparatus was constructed according to Woodbury and Davenport […]. The electric impulses (50 Hz A.C., 50 mA, 0.2 sec) were delivered via steel ball electrodes covered with buckskin and moistened with 0.9% sodium chloride solution placed on the heads and over the eyes of the mice. The test is a measure of the ability of anticonvulsive drugs to abolish the hindlimb tonic extensor component of the maximal seizure pattern induced by electric stimulation. The test compound was administered either as the free base or as the hydrochloride. The free base was suspended in 1% tylose, and the hydrochloride was dissolved in distilled water. […] Control groups received only the suspension agent or solvent orally. 30, 150 and 300 minutes after administration all animals were shocked.

[2] = system: drinking frequency of thirsty animals; experiment: Anxiolytic activity (drinking frequency of thirsty naive rats, electro-shock); type: in vivo; details: 10 mgm/kg orally, one hour before testing; for Shocks/animal, Treated animals: 3-minute session; for Shocks/animal, Difference (treated animals vs controls): ^+ significant difference compared with control group, (A, C, H, I, K), ° difference compared with control group, p >0.1 (B, D, E, F, J), G unmarked
Description: In their experiments, the drinking frequency of thirsty animals served as a measure for anxiety-relieving effects. Female rats with body weights between 150 and 170 gm were used as experimental animals. Food was available at all times, whereas they were deprived of water for 48 hours prior to the test session. The test apparatus was an opaque plastic box (24 × 24 × 22 cm), provided with a plexiglass cover and a […] floor. The metal drinking tube of a 250 ml-bottle covered with a hard plastic projected 2 cm from the wall into the box, the tube being attached to one side at a height of 6.5 cm. A piece of 0.2 cm at the tip of the tube was not plastic-covered. An electrical circuit was connected between the tube and the grid floor. Whenever a rat closed the circuit by licking the tube, each lick was counted electronically. At every 20th lick the animal received an electro-shock (40 V, 10 mA A.C.) via the tube ending and the grid. After the first 20 licks a time-counter was switched on, finishing the test after 3 minutes. Within this period the drinking frequency of each animal was recorded as the number of shocks delivered during the 3-minute session. […] The control groups received only the solvent or suspension agent. Statistical comparisons were made, using the Mann-Whitney-U-test (Siegel: Nonparametric Statistics, McGraw-Hill, 1956).

[3] = Acute toxicity in the mouse after intravenous administration; details: in vivo, i.v., mice, observed 14 days
Description: 5 female and 5 male mice per dose, with body weights between 20 and 26 gm, served as test animals. The animals had access to food and drinking water ad libitum.
Compounds D, E, I and J were dissolved in distilled water, compounds A, B and C in 0.2% tartaric acid, and compound G in 15% propylene glycol.
The injected volume at the dosage level of 50 mgm/kg i.v. amounted to 0.1 ml/10 gm of animal. When the dosage was increased or diminished by 10 mgm/kg i.v., the volume was increased or diminished by […], respectively. Control groups of 10 animals each were only treated with the solvent.
The LD50 -values were determined according to the graphic-statistical method of Litchfield and Wilcoxon [(J. Pharmacol. exp. Therap. 96, 99, (1949)].

[4] = 0.5 h, 30 min. after administration
[5] = 2.5 h, 150 min. after administration
[6] = 5 h, 300 min. after administration

SMILES	ED50 [1, 4]	ED50 [1, 5]	ED50 [1, 6]	Shocks/animal, Treated animals [2]	Shocks/animal, Difference (treated animals vs controls) [2]	LD50 at 336 h [3]
CCN1CCCC1CNC(=O)c1cc(Cl)c(N)c(C(F)(F)F)c1 (stereo not drawn) [J, N-[1-ethyl-pyrrolidyl-(2)-methyl]-4-amino-3-chloro-5-trifluoromethyl-benzoic acid amide hydrochloride]	62 mg/kg	64 mg/kg	82 mg/kg	7.2 Shocks/animal	3.6 Shocks/animal	33.5 mg/kg
CCN1CCCC1CNC(=O)c1cc([N+](=O)[O-])cc(Cl)c1N (stereo not drawn) [B, N-[1-ethyl-pyrrolidyl-(2)-methyl]-2-amino-3-chloro-5-nitro-benzoic acid amide]	78 mg/kg	130 mg/kg	178 mg/kg	4.9 Shocks/animal	1.2 Shocks/animal	39 mg/kg
CCN1CCCC1CNC(=O)c1cc(F)c(N)c(Cl)c1 (stereo not drawn) [Compound C, N-[1-ethyl-pyrrolidyl-(2)-methyl]-4-amino-3-chloro-5-fluoro-benzoic acid amide]	37 mg/kg	50 mg/kg	128 mg/kg	6.7 Shocks/animal	3.9 Shocks/animal	28.5 mg/kg
Cl.Nc1ccc(C(=O)NCc2ccccc2)c(Cl)c1 [G, 4-amino-N-benzyl-2-chloro-benzoic acid amide hydrochloride]	68 mg/kg	133 mg/kg	200 mg/kg	7.1 Shocks/animal	3.8 Shocks/animal	48 mg/kg
Cl.Nc1ccc(C(=O)NC2CCCCC2)c(Cl)c1 [F, 4-amino-2-chloro-N-cyclohexyl-benzoic acid amide hydrochloride]	38 mg/kg	50 mg/kg	116 mg/kg	5.3 Shocks/animal	2.0 Shocks/animal	
CCN1CCCC1CNC(=O)c1cc(Cl)cc(C(F)(F)F)c1N (stereo not drawn) [I, N-[1-Ethyl-pyrrolidyl-(2)-methyl]-2-amino-5-chloro-3-trifluoromethyl-benzoic acid amide hydrochloride]	72 mg/kg	100 mg/kg	124 mg/kg	7.5 Shocks/animal	4.6 Shocks/animal	52.5 mg/kg
CN(C(=O)c1ccc(N)cc1Cl)C1CCCCC1 [H, 4-amino-2-chloro-N-cyclohexyl-N-methyl-benzoic acid amide]	200 mg/kg	155 mg/kg	200 mg/kg	7.8 Shocks/animal	4.6 Shocks/animal	
Nc1c(C(=O)NCc2cccnc2)cc(Cl)cc1C(F)(F)F [K, 2-amino-5-chloro-N-[pyridyl-(3)-methyl]-3-trifluoromethyl-benzoic acid amide]	> 200 mg/kg	70 mg/kg	73 mg/kg	9.6 Shocks/animal	6.1 Shocks/animal	
CCN1CCCC1CNC(=O)c1cc(Br)cc(Cl)c1N (stereo not drawn) [E, N-[1-ethyl-pyrrolidyl-(2)-methyl]-2-amino-5-bromo-3-chloro-benzoic acid amide hydrochloride]	44 mg/kg	68 mg/kg	109 mg/kg	7.5 Shocks/animal	4.5 Shocks/animal	25 mg/kg
CCN1CCCC1CNC(=O)c1cc(Cl)cc(Cl)c1N (stereo not drawn) [D, N-[1-ethyl-pyrrolidyl-(2)-methyl]-2-amino-3,5-dichloro-benzoic acid amide hydrochloride]	35 mg/kg	54 mg/kg	109 mg/kg	6.8 Shocks/animal	3.1 Shocks/animal	31.5 mg/kg
CCN1CCCC1CNC(=O)c1cc(C)cc(Cl)c1N (stereo not drawn) [A, N-[1-ethyl-pyrrolidyl-(2)-methyl]-2-amino-3-chloro-5-methyl-benzoic acid amide]	28 mg/kg	60 mg/kg	102 mg/kg	7.1 Shocks/animal	3.6 Shocks/animal	28.6 mg/kg

Source: patent US4093734A, “Amino-benzoic acid amides” (Boehringer Ingelheim GmbH, priority 1975, dated 1978)
